Experimental data from article PMC9523973 (Cell reports, 2022).
Entries after “also recorded” stand apart in the source; their conditions may differ. Read-outs that look alike come from different tables or passages of the source.

Legend:
[1] = target: human NaV1.7 tamoxifen receptor (Homo sapiens, UniProt Q15858); experiment: NaV1.7 tritium-labeled tamoxifen competitive binding assay; settings: competition with H^3-Tam
[2] = tested on: endogenously expressed NaVs in cultured DRG neurons; experiment: Whole cell voltage clamp of sodium current; assay type: cell-based, mouse; settings: for IC50: read-out: IC50 of DRG INa inhibition
human NaV1.7 = human NaV1.7 (Homo sapiens, UniProt Q15858); experiment: Voltage clamp of expressed WT NaV1.7 INa
human NaV1.7, sequence (Q15858 whole entry): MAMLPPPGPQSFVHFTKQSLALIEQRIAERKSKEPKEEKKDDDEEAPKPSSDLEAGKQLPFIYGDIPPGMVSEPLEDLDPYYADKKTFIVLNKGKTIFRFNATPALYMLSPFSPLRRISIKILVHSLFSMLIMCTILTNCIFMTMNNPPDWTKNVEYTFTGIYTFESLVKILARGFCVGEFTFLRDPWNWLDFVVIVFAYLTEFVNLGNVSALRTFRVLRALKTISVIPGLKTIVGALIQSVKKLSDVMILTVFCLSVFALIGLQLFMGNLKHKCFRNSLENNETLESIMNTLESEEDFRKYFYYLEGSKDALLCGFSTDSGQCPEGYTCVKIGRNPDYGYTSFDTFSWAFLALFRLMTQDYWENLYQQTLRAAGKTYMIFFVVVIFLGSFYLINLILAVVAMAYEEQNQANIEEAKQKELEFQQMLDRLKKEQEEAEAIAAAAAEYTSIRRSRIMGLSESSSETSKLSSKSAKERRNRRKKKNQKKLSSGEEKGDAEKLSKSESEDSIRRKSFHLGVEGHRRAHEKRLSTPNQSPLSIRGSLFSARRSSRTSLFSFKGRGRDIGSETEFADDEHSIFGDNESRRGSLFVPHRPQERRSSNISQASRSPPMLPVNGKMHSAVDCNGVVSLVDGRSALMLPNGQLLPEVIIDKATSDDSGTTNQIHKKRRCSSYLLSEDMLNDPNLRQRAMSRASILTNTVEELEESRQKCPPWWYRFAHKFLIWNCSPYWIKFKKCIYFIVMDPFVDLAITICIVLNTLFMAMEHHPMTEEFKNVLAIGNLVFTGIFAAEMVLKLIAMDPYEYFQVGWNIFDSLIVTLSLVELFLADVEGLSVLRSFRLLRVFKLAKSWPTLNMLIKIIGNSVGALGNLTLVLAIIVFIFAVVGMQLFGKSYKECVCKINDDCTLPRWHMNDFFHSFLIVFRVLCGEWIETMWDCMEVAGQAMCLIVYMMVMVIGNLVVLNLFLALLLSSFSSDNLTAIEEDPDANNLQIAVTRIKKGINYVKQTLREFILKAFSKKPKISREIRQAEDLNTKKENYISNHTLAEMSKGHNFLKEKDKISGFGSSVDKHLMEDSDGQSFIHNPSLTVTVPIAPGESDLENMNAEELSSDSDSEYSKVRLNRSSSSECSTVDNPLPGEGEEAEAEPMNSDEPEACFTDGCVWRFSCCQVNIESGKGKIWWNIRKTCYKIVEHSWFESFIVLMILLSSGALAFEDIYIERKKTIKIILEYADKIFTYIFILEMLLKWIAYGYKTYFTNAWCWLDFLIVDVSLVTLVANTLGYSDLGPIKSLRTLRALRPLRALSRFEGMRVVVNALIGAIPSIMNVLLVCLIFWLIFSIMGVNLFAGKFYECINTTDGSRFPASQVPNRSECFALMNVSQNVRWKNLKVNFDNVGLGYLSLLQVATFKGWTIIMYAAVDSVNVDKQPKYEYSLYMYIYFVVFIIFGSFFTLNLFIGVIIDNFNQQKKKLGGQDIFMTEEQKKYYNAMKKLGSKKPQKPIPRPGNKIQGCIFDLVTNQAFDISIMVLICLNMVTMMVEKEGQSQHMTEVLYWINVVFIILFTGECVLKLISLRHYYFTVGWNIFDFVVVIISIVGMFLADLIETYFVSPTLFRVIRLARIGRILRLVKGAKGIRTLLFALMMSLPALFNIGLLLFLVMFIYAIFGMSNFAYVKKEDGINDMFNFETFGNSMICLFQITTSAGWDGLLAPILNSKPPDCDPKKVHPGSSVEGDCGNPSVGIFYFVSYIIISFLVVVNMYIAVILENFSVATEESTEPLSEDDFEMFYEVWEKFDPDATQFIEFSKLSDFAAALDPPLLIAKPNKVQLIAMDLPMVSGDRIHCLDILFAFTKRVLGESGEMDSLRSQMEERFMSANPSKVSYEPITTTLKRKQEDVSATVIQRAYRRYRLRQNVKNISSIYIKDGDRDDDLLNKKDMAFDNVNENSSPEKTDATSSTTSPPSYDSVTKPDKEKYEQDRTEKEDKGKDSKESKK
human NaV1.7, sequence (Q07699 19-218 partner): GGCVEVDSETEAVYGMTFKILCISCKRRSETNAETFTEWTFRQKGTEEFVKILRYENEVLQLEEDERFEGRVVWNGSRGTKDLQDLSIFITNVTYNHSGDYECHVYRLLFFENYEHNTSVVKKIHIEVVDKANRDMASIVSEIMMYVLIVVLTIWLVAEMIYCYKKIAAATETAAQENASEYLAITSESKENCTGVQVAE

[3] = tested on: knee hyperalgesia in mice after DMM surgery; experiment: In vivo osteoarthritis pain model; design: species or system mouse; settings: for knee hyperalgesia vs vehicle, 30 minutes after injection / knee withdrawal threshold vs vehicle through 3 hours: 50 μM intra-articular in 0.1% DMSO
NaV1.7 D1458A = NaV1.7 D1458A (Homo sapiens, UniProt Q15858, D1458A); experiment: Voltage clamp of NaV1.7 alanine substitution in domain III; assay type: cell-based; settings: vs WT NaV1.7
NaV1.7 D1458A, sequence (Q15858 whole entry D1458A, the tested form may be a part): as the sequence (Q15858 whole entry) above, with D1458A counted along it
NaV1.7 D1458A, sequence (Q07699 19-218 partner): as the sequence (Q07699 19-218 partner) above

[4] = target: NaV1.7 S969A:D1761A double mutant (Homo sapiens, UniProt Q15858, E1761A/S969A); assay type: cell-based; settings: read-out: IC50 of INa inhibition, S969A:D1761A double mutant channels
NaV1.7 S969A:D1761A double mutant (Homo sapiens, UniProt Q15858, E1761A/S969A), sequence (Q15858 whole entry S969A/E1761A): as the sequence (Q15858 whole entry) above, with S969A, E1761A counted along it
NaV1.7 S969A:D1761A double mutant (Homo sapiens, UniProt Q15858, E1761A/S969A), sequence (Q07699 19-218 partner): as the sequence (Q07699 19-218 partner) above

[5] = tested on: NaV1.7 S969A:D1761A double mutant; assay type: cell-based, human
DRG action potentials = experiment: Current clamp recording of cultured DRG neuron action potentials; assay type: cell-based, mouse
[6] = tested on: NaV1.7 DII S969A and DIV D1761A; assay type: cell-based, human; settings: vs WT NaV1.7
NaV1.7 F1748A and Y1755A = experiment: Voltage clamp of NaV1.7 local anesthetic binding site mutations; assay type: cell-based, human; settings: vs WT NaV1.7
[7] = tested on: knee hyperalgesia in mice after DMM surgery; settings: 20 mg/kg, ~0.85M, ref Miller et al., 2018; cited from earlier work

human NaV1.7 tamoxifen receptor, sequence (Q15858 whole entry): as the sequence (Q15858 whole entry) above

4-hydroxy-N-desmethyl benzophenone [4OH-ND-BP]
binding to NaV1.7 (in words) [1]: specific binding

O=C(c1ccccc1)c1ccc(O)cc1 [4OH-BP, 4-hydroxy benzophenone]
binding to NaV1.7 (in words) [1]: specific binding

CC/C(=C(\c1ccc(O)cc1)c1ccc(OCCN(C)C)cc1)c1ccccc1 [4OH-Tam, 4-hydroxy tamoxifen]
inhibition of DRG neuron INa (in words) [2]: inhibit DRG neuron INa | Hill slope coefficient of NaV1.7 INa inhibition (human NaV1.7): 1.9

C=C(C)[C@@H]1CCC(C)=C[C@H]1c1c(O)cc(CCCCC)cc1O [CBD, cannabidiol, reference compound]
knee hyperalgesia vs vehicle, 30 minutes after injection ([3]; 4 weeks after DMM): effectively inhibited knee hyperalgesia | knee withdrawal threshold vs vehicle through 3 hours ([3]; 4 weeks after DMM): remained elevated compared to vehicle control

CC/C(=C(\c1ccccc1)c1ccc(OCCNC)cc1)c1ccccc1 [ND-Tam, N-desmethyl tamoxifen]
change in potency or slope (NaV1.7 D1458A): no change in potency or slope | IC50 [4]: 36000 nM | potency reduction compared to WT NaV1.7 [5]: more than 21 times | impact on the resting membrane potential (DRG action potentials; 100 nM, spontaneously firing neurons): insignificant impact | reduction of the frequency of spontaneous action potentials (DRG action potentials; 100 nM, three-minute extracellular application, no current injected): 91% | inhibition of action potential frequency and peak amplitude after washout (DRG action potentials; control saline for 2 minutes after drug): persistent | area under the curve analysis of the first 3.5 hours post injection ([3]; 0.5 μM, after 3rd daily injection, compared to lidocaine or vehicle): superior efficacy | knee hyperalgesia vs vehicle ([3]; 50 μM (~0.002 mg/kg) intra-articular, vehicle 50% EtOH, 4 weeks after DMM, 30 minutes after injection): rapidly inhibited knee hyperalgesia pain; also recorded: provided relief from hyperalgesia | knee hyperalgesia vs vehicle, 30 minutes after injection ([3]; 4 weeks after DMM): effectively inhibited knee hyperalgesia | knee withdrawal threshold vs vehicle through 3 hours ([3]; 4 weeks after DMM): remained elevated compared to vehicle control | reduced potency of INa inhibition [6]: 3–7 times | inhibition of DRG neuron INa (in words) [2]: inhibit DRG neuron INa | frequency dependence of DRG INa inhibition ([2]; 300 nM at 0.1, 10 and 20 Hz): enhanced current inhibition at greater depolarization frequencies | block of the total INa ([2]; 1 μM): ≈ 45% | change in half-maximal activation of conductance (GV1/2) ([2]; 1 μM): no change | voltage-dependence of inactivation after drug treatment ([2]; 1 μM): −51.9 ± 0.4 mV | half-maximal conductance-voltage relationship (V1/2) ([2]; 1 μM ND-Tam conditions): −37.7 ± 0.4 mV | IC50 ([2]; −40 mV holding potential): 3.9 nM | IC50 ([2]; −60 mV holding potential): 112 nM | INa that did not recover after removing drug from the bath ([2]; waiting 5 minutes after removal): 86 ± 5% | Hill slope coefficient of NaV1.7 INa inhibition (human NaV1.7): 2.2 | IC50 (human NaV1.7; read-out: IC50 of INa inhibition, WT NaV1.7): 1700 nM | change in ND-Tam potency (NaV1.7 F1748A and Y1755A): little change

CNCCOc1ccccc1 [NM2P, N-methyl 2 phenoxyethanamine]
binding to NaV1.7 (in words) [1]: specific binding

CCN(CC)CC(=O)Nc1c(C)cccc1C [lidocaine, reference compound]
knee hyperalgesia vs vehicle, 30 minutes after injection ([3]; 4 weeks after DMM): effectively inhibited knee hyperalgesia | knee withdrawal threshold vs vehicle through 3 hours ([3]; 4 weeks after DMM): remained elevated compared to vehicle control | knee hyperalgesia after local injection of a high dose [7]: able to acutely reverse knee hyperalgesia
